# Experimental data taken from patent publication US20090032411A1, “METHOD AND SYSTEM FOR DETECTING PHARMACOLOGICALLY ACTIVE SUBSTANCES BY MEASURING MEMBRANE CURRENTS WITH EXTRACELLULAR SENSORS” (Max-Planck-Gesellschaft zur Foerderung Der Wissenschaften …, priority 2006, published 2009).
# “Also recorded” adds a separate entry of the source.
# What was measured:
# Type in all cases: cell-based
# [1] = molecular target: T1, voltage-gated channel Kv1.3 (Homo sapiens, UniProt P22001); assay: FET recording of junction voltage of HEK293 cells expressing only Kv1.3
# T1 construct: expressed in transfected cells; host or cells: HEK293
# Experimental: (§1) HEK293 cells were cultured in plastic dishes (Becton Dickinson, No. 353001), in Dulbecco's modified Eagle's medium (GIBCO, No. 21885-025), supplemented with 10% heat-inactivated fetal bovine serum. The cDNA of the human ligand-gated ion channel 5-HT3A was purchased from Invitrogen (Ultimate ORF clone collection, HORF01), and subcloned into the expression plasmid pcDNA3 (Invitrogen, No. V790-20), applying standard molecular biology methods. The construction of an expression plasmid for the voltage-gated potassium channel Kv1.3 was as described in J. Kupper: Functional expression of GFP-tagged Kv1.3 and Kv1.4 channels in HEK 293 cells. Eur. J. Neurosci. 10, 3908-12 (1998). The cells were stably transfected with one of the two expression plasmids using Geneticin (GIBCO, No. 11811-064), as the selection antibiotic (500 μg/ml). After generation of stable cell lines, the cells were transiently transfected with the other of the two expression plasmids together with the EGFP-C1 plasmid (BD Biosciences Clontech, No. 632317), which served as control for successful transfection. […]
# (§2) Silicon chips as described in M. Voelker, P. Fromherz: Signal transmission from individual mammalian nerve cell to field-effect transistor. […] Cells on transistor gates with the transiently expressed channels were identified by the green EGFP fluorescence. […]
# [2] = molecular target: T2, ligand-gated ion channel 5-HT3A (Homo sapiens, UniProt P46098); assay: FET recording of the extracellular (junction) voltage signal of HEK293 cells doubly transfected with 5-HT3A and Kv1.3, ligands of 5-HT3A; conditions: for extracellular voltage signal in the cell-chip junction on application of agonist: agonist 100 μM, cells expressing both 5-HT3A and Kv1.3, FET recording; for effect on the serotonin-induced extracellular voltage signal: tropisetron 1 μM present before and during stimulation with 100 μM serotonin, doubly transfected cell
# T2 construct: host or cells: HEK293
# T2 sequence (P46098 24-478): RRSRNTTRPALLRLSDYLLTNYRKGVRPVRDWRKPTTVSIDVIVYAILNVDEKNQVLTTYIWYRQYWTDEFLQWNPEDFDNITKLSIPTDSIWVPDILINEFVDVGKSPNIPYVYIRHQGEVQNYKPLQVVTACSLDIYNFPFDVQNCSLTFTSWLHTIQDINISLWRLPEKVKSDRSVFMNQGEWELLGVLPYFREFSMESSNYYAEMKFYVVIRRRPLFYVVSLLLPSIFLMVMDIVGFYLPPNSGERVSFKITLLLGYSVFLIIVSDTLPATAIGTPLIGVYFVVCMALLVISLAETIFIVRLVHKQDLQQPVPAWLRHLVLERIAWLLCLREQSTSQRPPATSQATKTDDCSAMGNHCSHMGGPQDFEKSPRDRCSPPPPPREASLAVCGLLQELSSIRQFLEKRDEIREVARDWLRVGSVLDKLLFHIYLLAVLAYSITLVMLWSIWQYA
# Experimental: HEK293 cells were cultured in plastic dishes (Becton Dickinson, No. 353001), in Dulbecco's modified Eagle's medium (GIBCO, No. 21885-025), supplemented with 10% heat-inactivated fetal bovine serum. The cDNA of the human ligand-gated ion channel 5-HT3A was purchased from Invitrogen (Ultimate ORF clone collection, HORF01), and subcloned into the expression plasmid pcDNA3 (Invitrogen, No. V790-20), applying standard molecular biology methods. The construction of an expression plasmid for the voltage-gated potassium channel Kv1.3 was as described in J. Kupper: Functional expression of GFP-tagged Kv1.3 and Kv1.4 channels in HEK 293 cells. Eur. J. Neurosci. 10, 3908-12 (1998). The cells were stably transfected with one of the two expression plasmids using Geneticin (GIBCO, No. 11811-064), as the selection antibiotic (500 μg/ml). After generation of stable cell lines, the cells were transiently transfected with the other of the two expression plasmids together with the EGFP-C1 plasmid (BD Biosciences Clontech, No. 632317), which served as control for successful transfection. Transfections were done using the Effectene method (Qiagen, No. 301425), at 60-80% confluency.
# Silicon chips as described in M. Voelker, P. Fromherz: Signal transmission from individual mammalian nerve cell to field-effect transistor. Small 1, 206-210 (2005) with 128 Field Effect Transistors (FET) in two linear arrays and a culture chamber on top were cleaned, sterilized under UV-light and coated with 10 μg/ml fibronectin (Sigma, No. F2006). Cells were plated on these chips under normal culture conditions one day after transient transfection, and measurements were done one day after plating. Cells on transistor gates with the transiently expressed channels were identified by the green EGFP fluorescence.
# During experiments the cells were flushed permanently with standard extracellular solution, consisting of (in mM): KCl 5.4, NaCl 135, CaCl2 1.8, MgCl2 1 Glucose 10, Hepes 5 (pH adjusted to 7.4 with NaOH). The ligands serotonin, CPBG (agonists of 5-HT3A) tropisetron and margatoxin (antagonists of 5-HT3A and Kv1.3, respectively), were obtained from Sigma (No. H9523, C144, T104, M8278), and dissolved in extracellular solution.
# Ligand solutions were applied rapidly (ms range), with a double barrelled glass pipette (Theta-Tube), connected to a piezoelectric actuator (Burleigh, LSS-3100). Different ligand solutions were directed to the glass pipette by an eight-channel valve control system (ALA, BPS-8).
# During application of ligands, the voltage in the cleft between transfected cells and the chip surface was probed with the gates of Field Effect Transistors under the cells.
# [3] = molecular target: T2, ligand-gated ion channel 5-HT3A; assay: FET recording of junction voltage of HEK293 cells expressing only 5-HT3A
# Experimental: as §1, §2
# [4] = molecular target: T3, voltage-gated potassium channel Kv1.3 (Homo sapiens, UniProt P22001); assay: FET recording of the extracellular (junction) voltage signal of HEK293 cells doubly transfected with 5-HT3A and Kv1.3, blocker of Kv1.3
# T3 construct: expressed in transfected cells; host or cells: HEK293
# Experimental: as §1, §2
# T3 sequence (P22001 whole entry): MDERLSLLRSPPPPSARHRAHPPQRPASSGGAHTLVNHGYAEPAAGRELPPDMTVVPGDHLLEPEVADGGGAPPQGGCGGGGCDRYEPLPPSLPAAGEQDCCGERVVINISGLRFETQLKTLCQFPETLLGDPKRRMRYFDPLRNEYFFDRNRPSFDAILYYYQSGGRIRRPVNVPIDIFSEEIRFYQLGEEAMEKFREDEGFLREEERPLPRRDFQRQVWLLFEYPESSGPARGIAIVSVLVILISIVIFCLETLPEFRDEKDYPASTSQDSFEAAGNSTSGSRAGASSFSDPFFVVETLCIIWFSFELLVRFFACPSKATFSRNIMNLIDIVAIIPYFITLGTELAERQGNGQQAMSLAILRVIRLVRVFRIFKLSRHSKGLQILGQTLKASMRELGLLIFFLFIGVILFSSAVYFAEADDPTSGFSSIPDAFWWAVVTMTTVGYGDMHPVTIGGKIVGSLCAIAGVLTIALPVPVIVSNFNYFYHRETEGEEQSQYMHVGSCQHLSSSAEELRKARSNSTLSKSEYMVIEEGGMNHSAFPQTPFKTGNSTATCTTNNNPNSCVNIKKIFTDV
# T1 sequence (P22001 whole entry): as above
molecule,measurement,setting,value
NCCc1c[nH]c2ccc(O)cc12 [serotonin],voltage signal in the cell-chip junction upon stimulation with serotonin,[1],failed to produce a signal
same,extracellular voltage signal in the cell-chip junction on application of agonist,[2],triggered a biphasic voltage signal; also recorded: Biphasic extracellular voltage signal; also recorded: caused a biphasic voltage signal
same,voltage signal in the cell-chip junction upon stimulation with serotonin,[3],failed to cause a voltage signal
"margatoxin (TIINVKCTSPKQCLPPCKAQFGQSAGAKCMNGKCKCYPH; UniProt P40755 1-39, looked up)",effect on the serotonin-induced extracellular voltage signal,"[4]; 5 nM margatoxin present during 100 μM serotonin stimulation, doubly transfected cell",The signal was reduced; also recorded: blocked the signal
same,serotonin-triggered signal after removal of margatoxin (reversibility),"[4]; same cell, after removal of 5 nM margatoxin",A biphasic voltage signal was recovered
NC(N)=NC(N)=Nc1cccc(Cl)c1 [CPBG],extracellular voltage signal in the cell-chip junction on application of agonist,[2],triggered a biphasic voltage signal; also recorded: caused a biphasic voltage signal
CN1[C@@H]2CC[C@H]1C[C@@H](OC(=O)c1c[nH]c3ccccc13)C2 [tropisetron],effect on the serotonin-induced extracellular voltage signal,[2],blocked the signal
same,effect on the serotonin-induced extracellular voltage signal,[2]; listed as Tropisetron,The signal was lost
